According to US4861795A, “Treatment of conditions requiring enhanced oxygen availability to mammalian tissues” (Rorer Pharmaceutical Corporation, priority 1988, dated 1989):
Counter-ions that a name gives are not always drawn.

Target: T1, 2,3-DPG phosphatase (Homo sapiens, UniProt P07738)
T1 sequence (P07738 1-259): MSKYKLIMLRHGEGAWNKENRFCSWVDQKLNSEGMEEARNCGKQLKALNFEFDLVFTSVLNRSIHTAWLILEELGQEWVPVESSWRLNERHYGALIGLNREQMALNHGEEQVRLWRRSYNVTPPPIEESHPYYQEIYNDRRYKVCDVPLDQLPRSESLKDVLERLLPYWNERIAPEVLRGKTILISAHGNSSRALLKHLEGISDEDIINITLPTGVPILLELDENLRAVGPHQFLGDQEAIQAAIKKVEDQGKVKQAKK
Assay: 2,3-Diphosphoglycerate Phosphatase Assay (radiochemical, release of inorganic 32P-phosphate from 2,3-DPG)
Assay type: biochemical
Settings: 100 μM compound; pH 7.5, 110 μM 32P-labeled 2,3-DPG, 5 μM phosphoglycolate, 37° C., 20 minutes
Description: 2,3-Diphosphoglycerate Phosphatase Assay The activity of 2,3-DPG phosphatase was determined radiochemically using a method based on Rose et al. (J. Biol. Chem. 245, 3232-3241, 1970). In this method the activity of the phosphatase is measured by determining the release of inorganic phosphate from the substrate, 2,3-DPG. The test compounds were dissolved in dimethyl sulfoxide at 100 times the final concentration used and then added to the reaction mixture at the beginning of the assay period. In the control experiments equivalent concentration of dimethyl sulfoxide was used. […] At the end of incubation the reaction was stopped by the addition of 0.1 ml of 15% w/v trichloroacetic acid and the sample was centrifuged (Eppendorf microfuge, Model 5413) in order to remove protein precipitates. Then 0.2 ml of the supernatant was withdrawn and mixed with 0.1 ml of 8 M sulfuric acid, 0.1 ml of 5% w/v ammonium molybdate and 0.6 ml of water. The mixture then was extracted with 2 ml of isobutanol/benzene (1:1,v/v) and then centrifuged to effect separation of the phases. 1 ml of the organic phase containing the extracted ^32 p-phosphate was counted in a scintillation counter (Beckman, Model LS 8,000) using a program for ^32 p radioactivity. The activity of the enzyme was expressed as number of mole phosphate release per minute. From the data obtained by employing the test method above-described, the percent inhibition of 2,3-DPG phosphatase was calculated and is shown in Table II.

SMILES	inhibition at 100 µM
COc1cccc2cc(C(=O)O)c(O)cc12 [a, 5-methoxy-3-hydroxy-2-naphthoic acid]	79.2%
O=C(O)c1cc2cccc(OCCc3ccccc3)c2cc1O [b, 5-phenetoxy-3-hydroxy-2-naphthoic acid]	94.3%
O=C(O)c1cc2cccc(OCc3cccc(C(F)(F)F)c3)c2cc1O [c, 5-(3-trifluoromethylbenzyloxy)-3-hydroxy-2-naphthoic acid]	94.3%
O=C(O)c1cc2cccc(OCCOc3ccccc3)c2cc1O [d, 5-phenoxyethoxy-3-hydroxy-2-naphthoic acid]	92.5%
CC(=O)Oc1cccc2cc(C(=O)O)c(O)cc12 [g, 5-acetoxy-3-hydroxy-2-naphthoic acid]	89.6%
O=C(O)c1cc2cccc(OCc3ccccc3)c2cc1O [h, 5-benzyloxy-3-hydroxy-2-naphthoic acid]	74%
CCOC(=O)c1cc2cccc(OCCN3CCCC3)c2cc1OCCN1CCCC1 [p, ethyl 3,5-bis[2-(1-pyrrolidinyl)ethoxy]-2-naphthoate monohydrochloride]	99.2%
O=C(O)c1cc2cccc(OCc3ccc(Cl)c(Cl)c3)c2cc1O [q, 5-(3,4-dichlorobenzyloxy)-3-hydroxy-2-naphthoic acid]	97.7%
O=C(O)c1cc2cccc(OCCCc3ccccc3)c2cc1O [r, 3-hydroxy-5-(3-phenylpropoxy)-2-naphthoic acid]	97.1%
O=C(O)c1cc2cccc(OCc3ccc(Cl)cc3Cl)c2cc1O [s, 5-(2,4-dichlorobenzyloxy)-3-hydroxy-2-naphthoic acid]	95.6%
O=C(O)c1cc2cccc(OCc3c(Cl)cccc3Cl)c2cc1O [t, 5-(2,6-dichlorobenzyloxy)-3-hydroxy-2-naphthoic acid]	94.2%
O=C(O)c1cc2cccc(OCCCc3ccc(Cl)c(Cl)c3)c2cc1O [u, 5-[3-(3,4-dichlorophenyl)-propoxy]-3-hydroxy-2-naphthoic acid]	86.9%
O=C(O)c1cc2cccc(OCc3ccc(F)cc3)c2cc1O [v, 5-(4-fluorobenzyloxy)-3-hydroxy-2-naphthoic acid]	89%
O=C(O)c1cc2cccc(OCc3ccc(Cl)c(Cl)c3)c2cc1OCc1ccc(Cl)c(Cl)c1 [w, 3,5-bis-(3,4-dichlorobenzyloxy)-2-naphthoic acid]	93.6%
C=CCCCCCCCCCOc1cccc2cc(C(=O)O)c(O)cc12 [x, 3-hydroxy-5(undecenyloxy)-2-naphthoic acid]	100%
O=C(O)c1cc2cccc(OCc3ccccc3)c2cc1OC(=O)C(Cl)Cl [y, 5-benzyloxy-3-dichloroacetoxy-2-naphthoic acid]	81.9%

Tested on: oxygen-dissociation curve in whole human blood
Assay: not given
Settings: in vitro, increase of 2,3-DPG; cited from earlier work

SMILES	displacement of the oxygen-dissociation curve (in words)
O=C(O)C(COP(=O)(O)O)OP(=O)(O)O (centres unmarked) [2,3-DPG, 2,3-diphosphoglyceric acid]	displaces in vitro the oxygen-dissociation curve to the right of normal
